Literature values as cited in patent US20250074868A1, “POLYHYDROXYLATED PHOTOINITIATORS” (Arkema France, priority 2021, published 2025).

- water solubility: 0.5 wt %
Structure (SMILES): CC(C)(O)C(=O)c1ccc(OCCO)cc1 [SpeedCure 2959]
